From article PMC11909086, “Synthesis and characterization of novel bis(thiosemicarbazone) complexes and investigation of their acetylcholinesterase and glutathione S-transferase activities with in silico and in vitro studies” (Molecular Diversity, 2024)

Tests used:
[1] = molecular target: T1, GST (glutathione S-transferase); assay: CDNB-GSH conjugation, […] nm, Lineweaver–Burk; assay type: biochemical; conditions: CDNB and GSH, phosphate pH […]
T1 construct: PDB 7BIB is only the docking model

[2] = molecular target: T1, GST (glutathione S-transferase); assay: CDNB-GSH conjugation, […] nm (Habig); assay type: biochemical; conditions: CDNB and GSH, phosphate pH […]

| Ki [1] | IC50 [2] | Structure (SMILES) |
| --- | --- | --- |
| 11.7 ± 5.45 µM | 2.19 µM | COc1ccc(NN=C2C(=NNC(N)=S)CCCC2=NNC(N)=S)cc1 [L, 2,2′-(2-(2-(4-methoxyphenyl)hydrazineylidene)cyclohexane-1,3-diylidene)bis(hydrazine-1-carbothioamide)] |
| 9.39 ± 3.3 µM | 0.374 µM | C=C(CC)C(=O)c1ccc(OCC(=O)O)c(Cl)c1Cl [Ethacrynic acid, reference compound] |
